# In article PMC2974656, “Selective killing of human immunodeficiency virus infected cells by non-nucleoside reverse transcriptase inhibitor-induced activation of HIV protease” (Retrovirology, 2010):
# How the values were obtained:
# [1] = tested on: MT4-CMV-EGFP control cells; assay: Cytotoxicity on uninfected control cells, EGFP fluorescence per well; type: cell-based
# Experimental: (§1) The cytotoxicity of inhibitors was determined in parallel on MT4-CMV-EGFP control cells and on MT4-LTR-EGFP-IIIB virus producing cells, respectively.
# [2] = tested on: MT4-LTR-EGFP parental cells; conditions: 1 μM, 6 days, trypan blue
# Source text: In MT4-LTR-EGFP-IIIB cells, HIV expression could additionally be detected through long terminal repeat (LTR) driven expression of the gfp marker gene. As a control we used uninfected MT-4 cells or MT4-CMV-EGFP cells, constitutively expressing EGFP from a CMV promoter, respectively.
# Cell lysates were harvested and analyzed by immunoblot using antiserum raised against HIV-1 CA. Positions of Gag and Gag-Pol processing products are marked at the right, molecular mass standards are indicated to the left (in kDa). […] Live cells were counted after trypan blue staining. Data represent mean values and standard deviations from three parallel cultures.
# 293T cells = assay: Microscopically detectable impairment of cell growth of transfected 293T cells; type: cell-based; conditions: high NNRTI concentrations (5 μM and above)
# Experimental: At 44 h post transfection, cell lysates were analyzed for β-Gal activity.
# [3] = tested on: Gag processing in MT-4-IIIB cells; assay: Immunoblot of Gag processing in chronically infected MT-4 cells; type: cell-based, HIV-1; conditions: 1 μM, day 2 post addition
# RT heterodimer (p66/p51) = target: T1, RT heterodimer (p66/p51) (Human immunodeficiency virus type 1 group M subtype B, UniProt P04585); assay: cell-based; type: cell-based, HIV-1
# T1 construct: the bait protein (p66) was fused to the C-terminus of a chimeric receptor; expressed in transfected cells; host or cells: mammalian cells
# Source text: RT heterodimer formation was monitored using a mammalian two hybrid system described previously. In brief, the bait protein (p66) was fused to the C-terminus of a chimeric receptor consisting of the extracellular part of the erythropoietin receptor and the intracellular part of the leptin receptor incapable of STAT activation. The prey protein (p51) was coupled to a part of the cytoplasmic tail of the gp130 chain carrying several STAT3 recruitment domains. Interaction of bait and prey protein leads to functional complementation of STAT3 activity, which results in Epo dependent induction of a STAT3-responsive luciferase reporter gene. Enhancement of this interaction by the addition of compounds can thus be measured by an increase of luciferase expression.
# HIV-1AGFP infected PBMC = assay: Killing of HIV-1 infected PBMC, proportion of GFP expressing cells by flow cytometry; type: cell-based, human; conditions: 1 μM NNRTI, added day 2 post infection with AMD-3100, 5 days
# Experimental: PBMC isolated from healthy blood donors were activated and infected with a replication competent HIV-1 derivative which carries a gfp gene in the nef locus [49]. The co-receptor antagonist AMD-3100 was added at day 2 post infection to prevent further viral spread.
# [4] = tested on: MT4-LTR-EGFP-IIIB HIV-1 producing cells; assay: in vitro; type: cell-based
# Experimental: as §1
# [5] = tested on: HXB2D-EGFP infected CD4 positive cells isolated from PBMC; assay: Killing of HIV-1 infected CD4 positive primary T-cells, flow cytometry; type: cell-based, human; conditions: 1 μM NNRTI + 1 μM AZT, 3 days
# Experimental: To validate our results obtained for the persistently infected cell line in a more relevant cell system we performed additional infection experiments using human peripheral blood mononuclear cells (PBMC). […]. PBMC isolated from healthy blood donors were activated and infected with a replication competent HIV-1 derivative which carries a gfp gene in the nef locus. The co-receptor antagonist AMD-3100 was added at day 2 post infection to prevent further viral spread. This was done to distinguish the proposed killing of infected cells from the inhibitory effect of NNRTIs and PIs on virus replication. […]. […] Similar results were obtained upon infection of CD4-positive primary T-cells with an EGFP-expressing virus (Figure 4B).
# Figure 4 NNRTI induced selective killing of HIV-1 infected primary human cells. (A) PBMC prepared from buffy coats of healthy blood donors were infected with HIV-1AGFP. At day 2 post infection, 100 ng/ml AMD-3100 was added to all samples to prevent further infection. […] After further incubation for 5 days, cells were harvested and analyzed for the proportion of infected GFP expressing cells by flow cytometry. […] P-values were calculated using a two-tailed unpaired t-test (GraphPad Prism). Values were normalized to the respective solvent control. (B) CD4 positive cells isolated from PBMC were infected with HXB2D-EGFP. […] After further incubation for 3 days, cells were harvested and analyzed for the proportion of infected cells by flow cytometry. […] Asterisks: non-infected controls.
# Peripheral blood mononuclear cells (PBMC) were purified from buffy coats of HIV-negative blood donors, grown in supplemented RPMI 1640 and stimulated by the addition of 10 ng/ml IL-2 (Biomol) and 2 μg/ml PHA (Sigma). PBMC pooled from two donors each were used for infection. […] For infection of PBMC, the HIV-1 derivatives HIV-1-AGFP [49] carrying the gfp gene fused to the codon for amino acid 16 of Nef in pNL4-3, or HXB2D-EGFP [60], which carries an egfp gene in the place of the viral nef open reading frame, were used as indicated. […]
smiles,measurement,setting,value
NS(=O)(=O)c1ccc(NC(=O)CSc2nnc(Br)n2-c2ccc(C3CC3)c3ccccc23)c(Cl)c1 [VRX-480773],CC50,[1],5.82 ± 1.44 µM
same,CC50 on uninfected control cells relative to virus producing cells,[1],~ 10 fold
same,Number of uninfected control cells,[2],remained constant
same,Impairment of cell growth with decrease in β-Gal activity indicative of cytotoxic effects,293T cells,most pronounced
same,NNRTI mediated enhancement of Gag processing in virus producing cells,[3],decreased ratio of Gag to intermediate and fully mature processing products
same,EC50,"RT heterodimer (p66/p51); concentration enhancing luciferase signal by 50% over control, read-out: Enhancement of RT-Dimerization EC50",4 nM
same,"Promotion of RT dimerization, in words",RT heterodimer (p66/p51); summary of Table 1,low nM range
same,Infected primary cells (PBMC) as compared with the control,HIV-1AGFP infected PBMC,significant reduction
same,CC50,"[4]; 4 days, no DRV, mean ± SD, tested up to 10 μM, read-out: Cytotoxicity on MT4-LTR-EGFP-IIIB HIV-1 producing cells CC50",680 ± 340 nM
same,"Cytotoxicity on MT4-LTR-EGFP-IIIB cells, in words",[4]; summary of Table 1,submicromolar range
same,Cytotoxicity on infected CD4-positive primary T-cells,[5],PR dependent cytotoxicity
